Experiments:
[1] = tested on: tyrosinase protein expression in B16F10 cells; experiment: Western blot of tyrosinase protein in IBMX/α-MSH-stimulated cells; type: cell-based, murine; settings: for tyrosinase expression level relative to untreated control: B16F10, 20 µM, IBMX 200 µM + α-MSH 1 µM, stimulator alone 6.6-fold (for 1), 5.7-fold (for 2); for effect on tyrosinase expression levels: B16F10, 5, 10, 20 µM, IBMX + α-MSH
Experimental: We investigated whether the derivatives 1 and 2 could influence the expression of tyrosinase protein using Western blotting. […] At 20 µM, derivatives 1 and 2 reduced the tyrosinase expression levels that increased during the stimulator treatment to 4.4- and 3.1-fold, respectively, implying that derivatives 1 and 2 may, in part, contribute to their anti-melanogenic actions by inhibiting tyrosinase expression.
After stimulating murine melanoma (B16F10) cells with α-MSH and IBMX for 24 h in the presence or absence of the tested derivatives at the indicated concentrations, the cells were lysed with lysis buffer containing protease and phosphatase inhibitors. Protein concentrations were determined using a BCA protein assay kit, according to the manufacturer’s instructions (Pierce, Rockford, IL, USA). Lysate proteins in each sample (10–20 µg) were subjected to 9% sodium dodecyl sulfate–polyacrylamide gel electrophoresis and electrophoretically transferred to a PVDF membrane (Millipore, Billerica, MA, USA) using a semi-dry system (Bio-Rad, Hercules, CA, USA). The membranes were incubated with 5% non-fat milk in TBST (0.1 M Tris-HCl, pH 7.5, 1.5 M NaCl, and 1% Tween 20) for 2 h. After blocking, the membranes were incubated with primary antibodies at 4 °C overnight. The following antibodies were used: tyrosinase and β-actin primary antibodies, as well as horseradish peroxidase-conjugated anti-mouse and anti-goat secondary antibodies (Santa Cruz Biotechnology, Dallas, TX, USA). The protein bands were visualized using the SuperSignal West Pico Chemiluminescence assay kit (Advansta, San Jose, CA, USA) and the Davinch–Chem program (Davinch-K, Seoul, Republic of Korea). The relative intensities were acquired using CS Analyzer 3.2 (Densitograph) image analysis software (http://www.attokorea.co.kr, accessed on 21 November 2022).
Figure 13 Effects of (Z)-BPT derivatives 1 and 2 on tyrosinase expression. Tyrosinase expression levels were evaluated in the presence of a stimulator (1 µM of α-MSH plus 200 µM of IBMX) with various concentrations (5, 10, and 20 µM) of derivatives 1 and 2 in B16F10 cells. ^### p < 0.001; * p < 0.05, and ** p < 0.01.

[2] = DPPH radical scavenging assay; settings: 1 mM, 30 min in the dark
Experimental: The 2,2-diphenyl-1-picrylhydrazyl (DPPH) radical scavenging capacity of the (Z)-BPT derivatives (1 mM) was investigated using L-ascorbic acid (1 mM, vitamin C) as a positive control. […] L-Ascorbic acid scavenged 97.1% of the DPPH radical, whereas (Z)-BPT derivative 1 with a 4-hydroxyl substituent on the β-phenyl ring scavenged 46.5% of the DPPH radical.
The antioxidant properties of (Z)-BPT derivatives 1–14 against DPPH (2,2-diphenyl-1-picrylhydrazyl) radicals were examined using a DPPH radical scavenging assay, as previously described with minor modifications. DPPH solution (180 µL, 0.2 mM) in methanol was mixed with a (Z)-BPT derivative solution (1–14, 20 µL, 10 mM) in dimethyl sulfoxide in each well of a 96-well plate, and the mixture was kept for 30 min in the dark at room temperature. The absorbance at 517 nm was measured using a VersaMax ™ microplate reader (Molecular Devices, Sunnyvale, CA, USA). The capacity of the derivatives to scavenge DPPH radicals was compared with that of L-ascorbic acid, which was used as the positive control. Each experiment was run independently in triplicates.
Figure 10 The radical scavenging effect of (Z)-BPT derivatives on DPPH. The DPPH radical scavenging activities of test samples (1 mM) were assayed after being left in the dark for 30 min. Distilled water and dimethyl sulfoxide (DMSO) were utilized as the solvents for the positive control L-ascorbic acid and the (Z)-BPT derivatives, respectively. Asterisks (***) represent a significant difference between L-ascorbic acid and the (Z)-BPT derivatives, and results are expressed as the mean ± standard error of three different experiments. *** p < 0.001.

[3] = molecular target: T1, B16F10 cellular tyrosinase (Mus musculus, UniProt P11344); experiment: Cellular anti-tyrosinase activity assay in IBMX/α-MSH-stimulated cells; type: cell-based, murine; settings: 72 h; for cellular tyrosinase inhibitory activity: IBMX + α-MSH; for effect on cellular tyrosinase activity enhanced by stimulators: B16F10, 5, 10, 20 µM, IBMX 200 µM + α-MSH 1 µM
T1 construct: the anti-tyrosinase effects of these derivatives were investigated using B16F10 cells; host or cells: B16F10 murine melanoma cells
T1 sequence (P11344 19-533): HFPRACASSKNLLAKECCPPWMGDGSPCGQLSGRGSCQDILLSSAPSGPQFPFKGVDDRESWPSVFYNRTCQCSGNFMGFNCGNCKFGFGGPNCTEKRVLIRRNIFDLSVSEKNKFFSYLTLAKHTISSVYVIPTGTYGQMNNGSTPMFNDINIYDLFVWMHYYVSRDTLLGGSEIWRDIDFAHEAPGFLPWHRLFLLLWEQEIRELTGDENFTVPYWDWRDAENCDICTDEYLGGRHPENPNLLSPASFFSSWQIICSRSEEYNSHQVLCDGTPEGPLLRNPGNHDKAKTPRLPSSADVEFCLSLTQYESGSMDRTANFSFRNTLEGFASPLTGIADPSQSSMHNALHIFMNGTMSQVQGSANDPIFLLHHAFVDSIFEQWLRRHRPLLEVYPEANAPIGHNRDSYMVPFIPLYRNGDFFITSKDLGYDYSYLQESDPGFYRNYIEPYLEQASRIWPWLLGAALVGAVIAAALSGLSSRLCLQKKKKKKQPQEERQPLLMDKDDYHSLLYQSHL
Experimental: To examine the origin of the anti-melanogenic effects of (Z)-BPT derivatives 1 and 2, the anti-tyrosinase effects of these derivatives were investigated using B16F10 cells. […] After 72 h of incubation, the effects of 1 and 2 on cellular tyrosinase activity were analyzed.
Briefly, B16F10 melanoma cells were seeded in a 6-well plate at a density of 1 × 10^5 cells/well and allowed to adhere to the bottom of each well under identical conditions to the cell culture. […] After incubation for 1 h, the tyrosinase activity of the cells was increased by treatment with 200 µM IBMX and 1 µM α-MSH. The cells were incubated for 72 h under identical conditions to cell culture before being rinsed twice with PBS, exposed to a 100 µL lysis buffer solution consisting of 90 µL phosphate buffer (50 mM) at pH 6.5, 5 µL PMSF (2 mM), and 5 µL Triton X-100 (20%), and then incubated for 30 min at −80 °C. The cell lysates were placed into microcentrifuge tubes after defrosting and they were centrifuged at 12,000 rpm at 4 °C for 30 min. The supernatants (80 µL) of the lysates were combined with 20 µL of 10 mM L-DOPA in a 96-well plate. Using a microplate reader used for the melanin content assay, the mixture’s absorbances were measured every 10 min for 1 h at 37 °C and 492 nm. Each experiment was performed independently in triplicates.
Figure 8 Anti-tyrosinase activities of (Z)-BPT derivatives 1 and 2 in B16F10 cells. […] (A) Derivative 1 and (B) derivative 2. Data are presented as the mean ± standard error of the mean. ^### p < 0.001; * p < 0.05, ** p < 0.01, and *** p < 0.001.

| SMILES | tyrosinase expression level relative to untreated control [1] [fold] | effect on tyrosinase expression levels [1] | DPPH radical scavenging activity [2] [%] | cellular tyrosinase inhibitory activity ([3]; B16F10, 20 µM) | effect on cellular tyrosinase activity enhanced by stimulators [3] | cellular tyrosinase inhibitory activity ([3]; B16F10, 5 µM) |
| --- | --- | --- | --- | --- | --- | --- |
| O=C1N=C(c2ccccc2)S/C1=C\c1ccc(O)cc1 [Compound 1, (Z)-5-(4-Hydroxybenzylidene)-2-phenylthiazol-4(5H)-one] | 4.4 | significantly reduced the tyrosinase expression levels in a dose-dependent manner | 46.5 | stronger inhibitory activity than kojic acid | dose-dependently and significantly decreased |  |
| O=C1N=C(c2ccccc2)S/C1=C\c1ccc(O)cc1O [Compound 2, (Z)-5-(2,4-Dihydroxybenzylidene)-2-phenylthiazol-4(5H)-one] | 3.1 | significantly reduced the tyrosinase expression levels in a dose-dependent manner | 66.9 | reduced the cellular tyrosinase activity to the levels observed in the untreated control | dose-dependently and significantly decreased | comparable to that of 20 µM kojic acid |
